Values quoted from earlier work as cited in US20260207574A1, “Pharmaceutical composition of pitolisant hydrochloride and Their Process for the preparation” (MSN Laboratories Private Limited, R & D Center, priority 2022, published 2026).
Where a name gives a salt, the structure may show the parent alone.

Tests used:
[1] = leads to N-oxide derivative as main degradation product; as per EMA
[2] = until 75% RH; as per EMA

Structure (SMILES) | solubility in acetone (acetone) | solubility in cyclohexane (cyclohexane) | solubility in ethanol (ethanol) | solubility in methylene chloride (methylene chloride) | solubility in water (water) | sensitivity to oxidative conditions [1] | hygroscopicity [2] | solubility in water until pH 7.5 (water, until pH 7.5, as per EMA)
Clc1ccc(CCCOCCCN2CCCCC2)cc1 [Pitolisant hydrochloride, 1-{3-[3-(4-chlorophenyl)propoxy]propyl} piperidine, hydrochloride] | freely soluble | practically insoluble | very soluble | very soluble | very soluble |  |  | 
Clc1ccc(CCCOCCCN2CCCCC2)cc1 [pitolisant] |  |  |  |  |  | sensitive to excessive oxidative conditions | not hygroscopic | very soluble
